Where no end group is shown, it is not given here. [ ]: non-standard residue; d: D form. pGlu = O=C1CC[C@@H](C(=O)O)N1
Assays:
[1] = Mouse pharmacokinetic study, IV (Example 2); settings: BL/6 mice, IV, 0.82 or 8.2 mg/kg, plasma total intact peptide
Experimental: Example 2: Mouse Pharmacokinetic Study to Evaluate In Vivo PK
The 4-arm 20 kDa PepPOL conjugate was dosed by IV administration to BL/6 mice at 0.82 or 8.2 mg/kg dose levels. […] The PK profiles for each peptide were evaluated by quantifying plasma concentrations of total intact peptide material over time (see methods).

[2] = 2nd mouse PK study, IV bolus (Example 3); format: in vivo; settings: BL/6 mice, IV bolus 5 mg/kg, plasma
Experimental: Example 3: 2nd Mouse PK Study
A second PK study was conducted in BL/6 mice to evaluate the plasma pharmacokinetics of the masking peptide in 8-arm (octavalent), 40 kDa PEG form. Both CD3ε PepPOL, v1 (40 kDa) and CD3ε PepPOL, v1 (20 kDa) (see Table 6 for sequences) were administered to mice by IV bolus at 5 mg/kg dose level and the results are shown in Fig. XX. […] The terminal elimination half-lives were estimated to be between 90 min and 120 min for the 20 kDa or 40 kDa CD3ε PepPOL, v1 forms, respectively.

[3] = test system: muCD19 TCE; experiment: muCD19 TCE + CD3ε PepPOL, v1 co-administration pilot study, cytokines and CD19+ B cell depletion (Example 6); format: in vivo, huCD3ε TCR KI mice; settings: ≥1000× molar overage with 100 μg/kg muCD19 TCE
Experimental: Example 6: Study muCD19 TCE+CD3ε PepPOL, v1 Co-Administration in huCD3ε TCR KI Mouse Model. 100 ug/kg IV Dose Murine Anti-muCD19 TCE Investigated >2300X
An initial pilot study in huCD3ε TCR KI mice was conducted to establish the desired PD effect with CD3ε PepPol v1. Here, CD3ε PepPol, v1 was co-administered at ≥1000× molar overage (peptide:TCE) with 100 μg/kg muCD19 TCE.

[4] = test system: FLT3×CD3 TCE (SEQ ID NO: 93); experiment: Association kinetics by KinExA (Table 5); format: binding; settings: KinExA, FLT3×CD3 TCE
Sequence of FLT3×CD3 TCE (SEQ ID NO: 93) (as listed by the source): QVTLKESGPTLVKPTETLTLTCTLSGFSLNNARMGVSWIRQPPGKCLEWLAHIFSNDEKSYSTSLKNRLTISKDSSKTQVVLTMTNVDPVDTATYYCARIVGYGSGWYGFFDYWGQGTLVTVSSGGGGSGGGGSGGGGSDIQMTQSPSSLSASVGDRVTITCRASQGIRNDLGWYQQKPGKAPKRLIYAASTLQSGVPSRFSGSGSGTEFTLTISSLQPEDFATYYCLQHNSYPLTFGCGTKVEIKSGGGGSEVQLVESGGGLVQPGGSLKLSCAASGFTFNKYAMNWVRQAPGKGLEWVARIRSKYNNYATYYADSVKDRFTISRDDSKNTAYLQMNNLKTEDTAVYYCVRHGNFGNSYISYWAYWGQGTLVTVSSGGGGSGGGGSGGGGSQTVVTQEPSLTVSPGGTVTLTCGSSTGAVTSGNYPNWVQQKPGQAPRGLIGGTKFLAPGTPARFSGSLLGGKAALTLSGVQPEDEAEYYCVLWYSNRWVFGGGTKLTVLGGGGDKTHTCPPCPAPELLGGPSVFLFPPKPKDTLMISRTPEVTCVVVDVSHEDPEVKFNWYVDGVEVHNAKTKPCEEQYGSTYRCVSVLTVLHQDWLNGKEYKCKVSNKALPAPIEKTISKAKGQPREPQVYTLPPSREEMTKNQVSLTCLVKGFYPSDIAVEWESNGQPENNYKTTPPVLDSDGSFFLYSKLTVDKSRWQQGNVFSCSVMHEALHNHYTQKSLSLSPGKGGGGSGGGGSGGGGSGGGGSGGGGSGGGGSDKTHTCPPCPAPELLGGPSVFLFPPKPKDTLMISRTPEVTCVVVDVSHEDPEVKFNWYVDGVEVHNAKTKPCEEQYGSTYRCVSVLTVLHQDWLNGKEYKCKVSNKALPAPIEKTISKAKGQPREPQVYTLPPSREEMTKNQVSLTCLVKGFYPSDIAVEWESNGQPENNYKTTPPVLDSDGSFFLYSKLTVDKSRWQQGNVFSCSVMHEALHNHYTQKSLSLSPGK
Experimental: • 1. Preparation of NHS-activated sepharose fast-flow beads: • 2. Fast flow sepharose suspension in 100% IPA, washed twice with milliQ H20, mild centrifugation to pool beads in between wash steps. • 3. Equilibrated in 0.15 M NaBO3, pH=8.5 buffer • 4. Added 80 mM PDEA to activate the resin for thiol exchange, 10 mins, r.t. • 5. Equilibrated resin with Hepes Buffered Saline-P (0.01 M HEPES pH 7.4, 0.15 M NaCl, 0.005% v/v Surfactant P2), pH 7.4 binding buffer • 6. Added 30 μg/mL of binding peptide, […] (SEQ ID NO; 297) or pGlu-[…] (SEQ ID NO: 300), reaction for 1 hr to functionalize resin. • 7. Quench with 10 mM L-Cys for 1 hour. • 8. Constant Binding Partner was FLT3×CD3 TCE (SEQ ID NO: 93), MW 105720, 3.2 mg/mL 31.21 uM was diluted to 333 pM and the pGlu-[…] peptide or pGlu-[…]-PEG (Pep-PEG v2) were titrated from 1 uM or 400 nM down to 2.3 pM concentrations relative to effective peptide molarity.
Association Kinetics by KinExA

[5] = test system: CD20 TCE; experiment: CD20 TCE + CD3ε PepPOL, v2 PK/PD study 157130 (Example 10); format: in vivo, cynomolgus monkeys
Experimental: Example 10: Cynomolgus Study CD20 TCE (0.010 mg/kg)+CD3ε PepPOL, v2 (+25× (0.016 mg/kg), +250× (0.16 mg/kg) Co-Administration in Cynomolgus Monkeys
PK/PD study 157130 was an exploratory dose-ranging study conducted in cynomolgus monkeys aimed to establish activity of a ‘high affinity’ CD3ε PepPOL, v2 when co-administered with CD20 TCE. Primary study endpoints included: cytokine release, CD20+ B cell lysis, T cell activation, and clinical chemistry end points typically associated with CRS (e.g., CRP). CD20 TCE was dosed at 10 ug/kg alone, or in combination with CD3ε PepPOL, v2 at 0.016 mg/kg (25× molar excess CD3ε peptide), or 0.160 mg/kg (250× molar excess CD3ε peptide). A summary of the results is described below.
Serum cytokines MCP-1, IL-6, TNFα, IFNγ, and IL-2 were assessed by multiplex sandwich immunoassay at multiple time points from 0-168 hours post dose.

[6] = C57BL/6 mice, single dose, non-linear one-phase decay fitting
Text: Example 4: TCE Masking Molecule in PK Mouse Study
To further understand the in vivo behavior of the pyro-Glu containing dimeric p-[…]

[7] = molecular target: Steap 1xCD3 TCE SEQ ID NO 373 + 374 + 375; experiment: SPR assay of immobilized peptides binding with TCE; settings: immobilized peptide, Kinetic 1:1 Binding
Sequence of Steap 1xCD3 TCE SEQ ID NO 373 + 374 + 375 (as listed by the source): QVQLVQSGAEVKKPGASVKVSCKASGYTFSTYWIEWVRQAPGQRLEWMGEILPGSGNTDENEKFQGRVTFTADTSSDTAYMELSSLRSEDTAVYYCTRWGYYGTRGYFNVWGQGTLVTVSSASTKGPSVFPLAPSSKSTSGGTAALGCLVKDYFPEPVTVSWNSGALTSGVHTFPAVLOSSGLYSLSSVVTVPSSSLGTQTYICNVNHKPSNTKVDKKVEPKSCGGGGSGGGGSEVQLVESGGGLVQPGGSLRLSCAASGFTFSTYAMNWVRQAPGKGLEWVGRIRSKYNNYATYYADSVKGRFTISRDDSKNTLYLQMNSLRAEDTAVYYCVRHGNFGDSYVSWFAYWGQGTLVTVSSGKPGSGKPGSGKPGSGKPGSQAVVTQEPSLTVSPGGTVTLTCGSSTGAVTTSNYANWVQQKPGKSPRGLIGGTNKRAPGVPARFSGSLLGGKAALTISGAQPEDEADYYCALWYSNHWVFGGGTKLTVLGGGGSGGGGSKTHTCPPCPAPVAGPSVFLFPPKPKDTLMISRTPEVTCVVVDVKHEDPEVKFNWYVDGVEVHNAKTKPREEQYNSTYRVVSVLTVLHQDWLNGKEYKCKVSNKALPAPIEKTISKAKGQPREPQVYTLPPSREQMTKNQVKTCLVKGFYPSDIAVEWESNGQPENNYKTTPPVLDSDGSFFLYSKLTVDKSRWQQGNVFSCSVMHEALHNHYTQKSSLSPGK
Sequence of Steap 1xCD3 TCE SEQ ID NO 373 + 374 + 375 (as listed by the source partner): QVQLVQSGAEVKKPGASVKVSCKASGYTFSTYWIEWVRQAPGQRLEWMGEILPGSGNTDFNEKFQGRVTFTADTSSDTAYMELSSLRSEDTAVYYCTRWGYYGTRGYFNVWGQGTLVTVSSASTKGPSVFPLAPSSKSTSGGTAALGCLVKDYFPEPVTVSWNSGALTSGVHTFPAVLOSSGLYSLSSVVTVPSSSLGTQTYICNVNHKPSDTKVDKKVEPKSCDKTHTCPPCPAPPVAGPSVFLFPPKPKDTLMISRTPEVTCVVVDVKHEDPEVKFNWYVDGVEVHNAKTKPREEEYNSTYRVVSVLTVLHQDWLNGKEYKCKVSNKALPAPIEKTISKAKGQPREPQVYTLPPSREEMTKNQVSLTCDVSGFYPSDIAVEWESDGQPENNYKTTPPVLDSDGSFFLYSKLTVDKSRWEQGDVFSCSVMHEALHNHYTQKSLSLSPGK
Sequence of Steap 1xCD3 TCE SEQ ID NO 373 + 374 + 375 (as listed by the source partner): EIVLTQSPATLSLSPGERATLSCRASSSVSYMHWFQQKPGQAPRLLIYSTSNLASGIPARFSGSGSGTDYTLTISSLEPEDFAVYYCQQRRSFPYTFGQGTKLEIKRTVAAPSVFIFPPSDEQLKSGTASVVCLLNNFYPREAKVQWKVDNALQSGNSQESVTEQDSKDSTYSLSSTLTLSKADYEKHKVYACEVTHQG
Experimental: (§1) Example 14: SPR Assay of Immobilized Peptides Binding with TCE
(§2) A cytiva CM5 chip was first functionalized with PDEA (2-(2pyridinyldithio)ethaneamine) under standard ((1-ethyl-3-(3-dimethylaminopropyl)carbodiimide)/(N-hydroxysuccinimide) EDC/NHS coupling conditions where the PDEA is dissolved to 20 mM and 1 M NaCl in 0.1 M sodium acetate pH 4.3. Binding peptides were dissolved to 50- or 100-ug/mL respectively in PBST, pH 6.5, and coupling times were optimized to yield the desired surface density.

[8] = test system: CLDN6xCD3 TCE SEQ ID NO 340; experiment: SPR assay of immobilized peptides binding with TCE; settings: immobilized peptide, Kinetic 1:1 Binding
Experimental: as §1, §2

[9] = molecular target: DLL3xCD3 TCE SEQ ID NO 104; experiment: SPR assay of immobilized peptides binding with TCE; settings: immobilized peptide, Kinetic 1:1 Binding
Sequence of DLL3xCD3 TCE SEQ ID NO 104 (as listed by the source): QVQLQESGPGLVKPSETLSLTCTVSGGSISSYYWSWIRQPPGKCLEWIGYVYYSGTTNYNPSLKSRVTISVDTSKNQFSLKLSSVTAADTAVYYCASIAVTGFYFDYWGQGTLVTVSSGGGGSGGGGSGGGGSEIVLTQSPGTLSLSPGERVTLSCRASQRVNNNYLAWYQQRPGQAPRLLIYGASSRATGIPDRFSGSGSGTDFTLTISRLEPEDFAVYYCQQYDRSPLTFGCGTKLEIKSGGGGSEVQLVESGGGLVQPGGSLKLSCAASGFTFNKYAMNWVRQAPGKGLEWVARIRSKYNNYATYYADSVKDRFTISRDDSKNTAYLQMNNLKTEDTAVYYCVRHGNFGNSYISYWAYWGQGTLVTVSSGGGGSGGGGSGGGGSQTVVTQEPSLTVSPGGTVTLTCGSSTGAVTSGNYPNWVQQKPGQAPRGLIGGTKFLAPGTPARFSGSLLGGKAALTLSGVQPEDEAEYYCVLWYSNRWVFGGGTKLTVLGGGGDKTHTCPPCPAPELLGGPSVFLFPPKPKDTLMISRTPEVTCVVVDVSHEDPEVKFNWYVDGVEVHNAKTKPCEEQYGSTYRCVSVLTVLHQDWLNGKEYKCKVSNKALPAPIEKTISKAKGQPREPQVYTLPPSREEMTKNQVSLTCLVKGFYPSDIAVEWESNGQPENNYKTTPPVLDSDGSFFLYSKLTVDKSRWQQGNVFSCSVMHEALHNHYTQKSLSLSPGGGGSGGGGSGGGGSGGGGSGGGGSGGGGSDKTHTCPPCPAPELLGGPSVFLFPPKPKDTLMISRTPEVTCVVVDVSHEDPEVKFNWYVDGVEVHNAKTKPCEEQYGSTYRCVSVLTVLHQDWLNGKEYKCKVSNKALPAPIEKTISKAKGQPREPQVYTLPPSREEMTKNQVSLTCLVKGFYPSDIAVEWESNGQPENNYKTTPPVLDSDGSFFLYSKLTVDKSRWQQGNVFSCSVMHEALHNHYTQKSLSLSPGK
Experimental: as §1, §2

[10] = molecular target: FLT3xCD3 TCE SEQ ID NO 93; experiment: SPR assay of immobilized peptides binding with TCE; settings: immobilized peptide, Kinetic 1:1 Binding
Experimental: as §1, §2

[11] = test system: CDH3-CD3-MSLN-CD3 TCE (SEQ ID NO 255); experiment: SPR assay of immobilized peptides binding with TCE
Sequence of CDH3-CD3-MSLN-CD3 TCE (SEQ ID NO 255) (as listed by the source): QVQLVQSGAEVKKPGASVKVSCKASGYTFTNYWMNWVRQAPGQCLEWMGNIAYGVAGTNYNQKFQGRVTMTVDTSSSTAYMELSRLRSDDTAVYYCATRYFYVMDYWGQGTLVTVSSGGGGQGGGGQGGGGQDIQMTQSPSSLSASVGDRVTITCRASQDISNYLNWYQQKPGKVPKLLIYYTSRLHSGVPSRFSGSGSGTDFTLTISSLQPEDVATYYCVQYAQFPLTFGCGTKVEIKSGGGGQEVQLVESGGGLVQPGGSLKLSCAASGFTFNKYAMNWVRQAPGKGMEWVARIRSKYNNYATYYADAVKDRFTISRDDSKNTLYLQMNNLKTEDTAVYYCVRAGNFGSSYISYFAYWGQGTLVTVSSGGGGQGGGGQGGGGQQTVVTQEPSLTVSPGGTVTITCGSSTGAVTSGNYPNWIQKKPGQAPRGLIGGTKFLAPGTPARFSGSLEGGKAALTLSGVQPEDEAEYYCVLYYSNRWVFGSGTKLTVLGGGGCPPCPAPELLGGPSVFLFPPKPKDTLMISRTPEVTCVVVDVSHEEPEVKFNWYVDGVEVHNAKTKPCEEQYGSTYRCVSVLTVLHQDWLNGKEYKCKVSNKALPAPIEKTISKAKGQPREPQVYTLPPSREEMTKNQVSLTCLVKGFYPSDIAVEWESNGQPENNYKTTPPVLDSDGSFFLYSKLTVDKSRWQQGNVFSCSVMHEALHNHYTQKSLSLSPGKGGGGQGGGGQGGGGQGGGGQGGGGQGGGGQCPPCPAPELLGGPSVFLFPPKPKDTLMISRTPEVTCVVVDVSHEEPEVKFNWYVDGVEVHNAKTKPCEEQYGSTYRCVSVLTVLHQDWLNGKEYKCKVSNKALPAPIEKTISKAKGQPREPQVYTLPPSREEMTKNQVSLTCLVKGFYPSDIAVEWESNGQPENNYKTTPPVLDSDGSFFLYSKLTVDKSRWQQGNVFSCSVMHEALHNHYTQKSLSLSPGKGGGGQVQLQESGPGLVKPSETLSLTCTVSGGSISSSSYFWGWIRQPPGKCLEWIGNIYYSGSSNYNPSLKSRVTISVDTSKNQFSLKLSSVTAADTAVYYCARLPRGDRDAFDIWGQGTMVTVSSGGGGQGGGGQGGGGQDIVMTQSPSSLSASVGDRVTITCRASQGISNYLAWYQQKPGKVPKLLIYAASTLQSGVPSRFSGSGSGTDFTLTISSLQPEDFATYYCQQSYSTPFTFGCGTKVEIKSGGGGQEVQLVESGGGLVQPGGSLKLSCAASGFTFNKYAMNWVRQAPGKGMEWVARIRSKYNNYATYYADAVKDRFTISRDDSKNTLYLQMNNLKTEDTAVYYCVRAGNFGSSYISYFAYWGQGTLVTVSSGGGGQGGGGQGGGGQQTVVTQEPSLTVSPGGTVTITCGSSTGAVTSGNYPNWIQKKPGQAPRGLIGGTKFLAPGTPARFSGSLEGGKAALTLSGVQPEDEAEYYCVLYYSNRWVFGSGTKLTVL
Experimental: as §1, §2

[12] = molecular target: FLT3xCD3 TCE; experiment: SPR solution assay of competition binding with TCE
Experimental: (§3) SPR Solution Assay of Competition Binding with TCE
(§4) As it can be derived from table 6,
(§5) A high affinity SPR ‘capture’ surface was first constructed to facilitate the SPR analysis of pre-equilibrated peptide analyte+TCE solutions. Briefly, a Cytiva CM5 chip was functionalized with PDEA (2-(2-pyridinyldithio)ethaneamine) under standard EDC/NHS coupling conditions where the PDEA is dissolved to 20 mM 2-(2-pyridinyldithio)ethaneamine and 1 M NaCl in 0.1 M sodium acetate pH 4.3, 6 peptide including p[…] (ID 14974, SEQ ID NO 304) were tested:
(§6) Respective peptide was dissolved to between 50 and 100-ug/mL for injection over the activated CM5 surface in PBST, pH 6.5, and coupling times were optimized to yield the desired surface density (~300RU).
(§7) For the binding assessment, Individual binding isotherms were constructed by titrating the respective peptide of interest into a fixed concentration of TCE-containing solution in PBST. At least 4 hrs equilibration time were allotted (r.t.) prior to analysis by SPR. For the analysis, a calibration curve was first constructed of the TCE analyte being assessed. For analysis of the TCE+peptide mixtures, the samples were injected (10 uL/min) over the previously prepared capture surface for 90 seconds, where the SPR response (RU) was recorded at the end of the injection and referenced to the previously prepared standard curve to derive an estimate of the ‘free’ TCE concentration in the presence of peptide analyte. The ‘free’ TCE concentration measured was plotted as a function of log peptide concentration and fit using non-linear regression analysis to a 4 parameter logistic function to derive an IC50.

[13] = molecular target: STEAP1xCD3 TCE; experiment: SPR solution assay of competition binding with TCE
Experimental: as §3, §4, §5, §6, §7

For “(QDGNEEMGKGMEENGDQC)4 - PEG(20 kDa) (also: four copies conjugated to PEG 20 kDa)”, the terminal elimination half-life [1] was about 1.47 h, the terminal elimination half-lives [2] was about 90 min and the “PD effect with respect to CD19+ B cell depletion” value [3] was “retained a greater degree of PD effect”. The “impact on cytokine reduction” value [3] was “cytokine reduction can be seen” and the “koff” value [4] was 0.0047 s⁻¹.

With “(pE-DGNEEMGKGMEENGDQC)4-PEG(20 kDa) ([pGlu]DGNEEMGKGMEENGDQC; also: four copies attached to PEG(20 kDa), site not given here)” the IL-6 serum concentration ([5]; 0.010 mg/kg CD20 TCE + 0.016 mg/kg (25×)) was “moderate increase in IL-6 serum concentration for n=1 of 2 animals”, the IL-6 stimulation ([5]; 0.010 mg/kg CD20 TCE + 0.16 mg/kg (250×)) was “No IL-6 stimulation was observed” and the “difference in CD20 TCE cytolytic activity vs CD20 TCE control group” value ([5]; 0.010 mg/kg CD20 TCE IV) was “No apparent difference”. The “circulating CD20+ B lymphocytes” value ([5]; 0.010 mg/kg CD20 TCE IV alone or in combination) was “complete elimination”, the “reduction in peak serum MCP-1” value ([5]; 4 hr, 250× combo group, 0.010 mg/kg CD20 TCE IV) was ~ 98% and the “TNF-α and IFN-γ” value ([5]; CD20 TCE + 0.160 mg/kg, all time points, both animals) was “not detected above the assay LLOQ”. For the same substance, the IL-2 response ([5]; any group) was “No detectable IL-2 response”, the “T cell activation, early (CD69+) and late (CD25+) markers by flow cytometry” value ([5]; co-administration with 0.010 mg/kg CD20 TCE, 20 day study) was “pronounced effect on T cell activation” and the “C-reactive protein (CRP)” value ([5]; combo groups relative to CD20 TCE monotherapy 0.010 mg/kg IV) was “dose-dependent decrease in CRP”. The elimination half-lives [6] was about 102 min and the “koff” value [4] was 0.00195 s⁻¹.

For “pGlu-DGEEELKGC (N-terminal pyroglutamate; VARIANT 1 Pyroglutamic acid)”, the Kd [7] was 27.4 nM, the “ka” value [7] was 3.04e+06 M⁻¹ s⁻¹ and the “kd” value [7] was 0.0834 s⁻¹. For the same substance, the “ka” value [8] was 3.81e+06 M⁻¹ s⁻¹, the “kd” value [8] was 0.0624 s⁻¹ and the Kd [9] was 20.5 nM. For the same substance, the “ka” value [9] was 2.64e+06 M⁻¹ s⁻¹, the “kd” value [9] was 0.0542 s⁻¹ and the Kd [10] was 7.3 nM. The “ka” value [10] was 4.04e+06 M⁻¹ s⁻¹, the “kd” value [10] was 0.0295 s⁻¹ and the “fast component for the off-rate” value ([11]; bivalent analyte model) was 0.236 s⁻¹. For the same substance, the “fast component of the on-rate” value ([11]; bivalent analyte model) was 1.29e+06 M⁻¹ s⁻¹, the Kd ([11]; immobilized peptide, SS Affinity model) was 72.5 nM and the IC50 ([12]; solution competition) was 14.7 nM. The IC50 [13] was 28.6 nM.

With pGlu-DGTEELKGC ([pGlu]DGTEELKGC) the “ka” value [7] was 2.09e+06 M⁻¹ s⁻¹, the “kd” value [7] was 0.0734 s⁻¹ and the “ka” value [9] was 4.81e+06 M⁻¹ s⁻¹. For the same substance, the “kd” value [9] was 0.0713 s⁻¹, the “ka” value [10] was 3.21e+06 M⁻¹ s⁻¹ and the “kd” value [10] was 0.0285 s⁻¹. The “reduction in IC50 (FIG. 19)” value ([12]; FLT3×CD3 TCE and STEAP1×CD3 TCE) was “negative example”.

From patent US20260258083A1, “T Cell Engager Masking Molecules” (AMGEN INC., priority 2023, published 2026)
